Measured values as given in patent publication US20250127753A1, “PHARMACEUTICAL APPLICATION OF DIMYRICETIN-YL-DISELENIDE IN TUMORS” (Shanghai Spark Pharmaceutical Co., Ltd., priority 2023, published 2025).

What was measured:
T24 = assay: In vitro cell viability (CTG), T24; type: cell-based, Human; settings: T24 cells, 72 hours, CTG assay
Description: (§1) Collect cells in the exponential growth phase and count viable cells separately using a cell counter. Adjust the cell suspension to an appropriate concentration with the corresponding culture medium. Add 90 μL of the cell suspension to each well of a 96-well cell culture plate, with 3 replicate wells containing 5000 cells/well. Place the plate in an incubator at 37° C. with 5% CO2 overnight.
(§2) On the second day, add 10 μL of dimyricetin diselenide and cisplatin to the corresponding wells. The highest final concentration of dimyricetin diselenide is 300 μg/ml (i.e., 379 μM), and the highest final concentration of cisplatin is 300 μM. A total of 9 concentrations are prepared with a 3-fold dilution.
(§3) After 72 hours, detect cell viability using the CTG assay.
(§4) Using GraphPad Prism 8.0 software, an S-shaped dose-survival curve was plotted with log (inhibitor) as the x-axis and response as the y-axis, adopting the Variable slope (four parameters) model to calculate the IC50 value.

MBT-2 = assay: In vitro cell viability (CTG), MBT-2; type: cell-based, Mouse; settings: MBT-2 cells, 72 hours, CTG assay
Description: as §1, §2, §3, §4

HCC1954 = assay: In vitro cell viability (CTG), HCC1954; type: cell-based, Human; settings: HCC1954 cells, 72 hours, CTG assay
Description: as §1, §2, §3, §4

EMT-6 = assay: In vitro cell viability (CTG), EMT-6; type: cell-based, Mouse; settings: EMT-6 cells, 72 hours, CTG assay
Description: as §1, §2, §3, §4

HCT116 = assay: In vitro cell viability (CTG), HCT116; type: cell-based, Human; settings: HCT116 cells, 72 hours, CTG assay
Description: as §1, §2, §3, §4

CT-26.WT = assay: In vitro cell viability (CTG), CT-26.WT; type: cell-based, Mouse; settings: CT-26.WT cells, 72 hours, CTG assay
Description: as §1, §2, §3, §4

MKN45 = assay: In vitro cell viability (CTG), MKN45; type: cell-based, Human; settings: MKN45 cells, 72 hours, CTG assay
Description: as §1, §2, §3, §4

MFC = assay: In vitro cell viability (CTG), MFC; type: cell-based, Mouse; settings: MFC cells, 72 hours, CTG assay
Description: as §1, §2, §3, §4

786-O = assay: In vitro cell viability (CTG), 786-O; type: cell-based, Human; settings: 786-O cells, 72 hours, CTG assay
Description: as §1, §2, §3, §4

Renca = assay: In vitro cell viability (CTG), Renca; type: cell-based, Mouse; settings: Renca cells, 72 hours, CTG assay
Description: as §1, §2, §3, §4

Hep G2 = assay: In vitro cell viability (CTG), Hep G2; type: cell-based, Human; settings: Hep G2 cells, 72 hours, CTG assay
Description: as §1, §2, §3, §4

H22 = assay: In vitro cell viability (CTG), H22; type: cell-based, Mouse; settings: H22 cells, 72 hours, CTG assay
Description: as §1, §2, §3, §4

HCC827 = assay: In vitro cell viability (CTG), HCC827; type: cell-based, Human; settings: HCC827 cells, 72 hours, CTG assay
Description: as §1, §2, §3, §4

LL/2(LLC1) = assay: In vitro cell viability (CTG), LL/2(LLC1); type: cell-based, Mouse; settings: LL/2(LLC1) cells, 72 hours, CTG assay
Description: as §1, §2, §3, §4

A375 = assay: In vitro cell viability (CTG), A375; type: cell-based, Human; settings: A375 cells, 72 hours, CTG assay
Description: as §1, §2, §3, §4

B16-F10 = assay: In vitro cell viability (CTG), B16-F10; type: cell-based, Mouse; settings: B16-F10 cells, 72 hours, CTG assay
Description: as §1, §2, §3, §4

PANC-1 = assay: In vitro cell viability (CTG), PANC-1; type: cell-based, Human; settings: PANC-1 cells, 72 hours, CTG assay
Description: as §1, §2, §3, §4

Panc 02 = assay: In vitro cell viability (CTG), Panc 02; type: cell-based, Mouse; settings: Pance 02 cells, 72 hours, CTG assay
Description: as §1, §2, §3, §4

DU145 = assay: In vitro cell viability (CTG), DU145; type: cell-based, Human; settings: DU145 cells, 72 hours, CTG assay
Description: as §1, §2, §3, §4

RM-1 = assay: In vitro cell viability (CTG), RM-1; type: cell-based, Mouse; settings: RM-1 cells, 72 hours, CTG assay
Description: as §1, §2, §3, §4

[1] = test system: H22 subcutaneous transplanted tumor; assay: Pharmacodynamics of subcutaneous transplanted tumor in vivo (H22); parameters: species or system BALB/c mice; settings: G2, 1 mg/kg i.v. BIW
Description: • Animal species and strain: BALB/c mice • Drug administration history: None • Gender and age: Female, 6-7 weeks old • Breeder/supplier: Shanghai Jihui Laboratory Animal Breeding Co., Ltd. or other qualified suppliers • Experimental facility: Pengli Biology Animal Facility • Acclimation period: 3-7 days • Number of animals: 42 • Housing: SPF (Specific Pathogen Free) area • Indoor temperature: 20-26° C. • Indoor relative humidity: 40-70% • Lighting: Fluorescent lighting, 12 hours on (08:00-20:00) and 12 hours off • Animal housing: 2-6 mice per cage (same treatment group) • Food: Ad libitum access to irradiated feed (supplied by Jiangsu Xie Tong Pharmaceutical Bioengineering Co., Ltd., China) • Water: Ad libitum access to drinking water (tap water treated by reverse osmosis or autoclaving and acidified)
BALB/c mice were purchased from Shanghai Jihui Laboratory Animal Breeding Co., Ltd. for the H22 efficacy experiment. The animals were free of specific pathogens and arrived at Pengli Biology Animal Facility at approximately 5-6 weeks of age. The proposed animal handling procedures for the experimental protocol will be reviewed and approved by the IACUC (Institutional Animal Care and Use Committee) of Pengli Biology before the start of the experiment.
The H22 cell line used in this experiment was cultured in RPMI-1640 medium supplemented with 10% FBS in a CO2 incubator at 37° C. Prior to continuous culturing for ten passages, approximately 3×10^6 H22 cells were suspended in PBS and subcutaneously inoculated into each mouse at a volume of 100 μL. Mice were anesthetized with 3-4% isoflurane before inoculation.
When tumors grew to an average size of approximately 50-80 mm3, tumor-bearing mice were randomly divided into 4 groups of 8 mice each based on body weight and tumor size. The day of group assignment and drug administration was defined as Day 0. The grouping and dosing regimen are outlined in the table below.
Tumor Volume: Measure the tumor volume twice weekly after grouping for a consecutive 4 weeks. The calculation method for tumor volume (V) is as follows: V=(Length×Width^2)/2. The relative tumor volume (RTV) for each nude mouse is calculated as: RTV=Vt/V0, where Vt is the measured volume for each day and V0 is the volume at the start of treatment.
Relative Tumor Proliferation Rate (T/C %): Used to evaluate the antitumor activity of the drug. The relative tumor proliferation rate T/C (%) is calculated as the mean RTV of the treatment group (T) divided by the mean RTV of the negative control group (C), multiplied by 100%.
Tumor Growth Inhibition (TG1%): TG1%=(1−T/C)×100%, where T is the mean RTV of the treatment group and C is the mean RTV of the negative control group.

`N.N.[Cl][Pt][Cl]` [Cisplatin, reference compound] showed an IC50 (T24) of 3.71 µM, an IC50 (MBT-2) of 9.91 µM and an IC50 (HCC1954) of 13.2 µM. It also gave an IC50 (EMT-6) of 6.58 µM, an IC50 (HCT116) of 7.01 µM and an IC50 (CT-26.WT) of 7.48 µM. For the same compound, the IC50 (MKN45) was 6.7 µM, the IC50 (MFC) was 5.96 µM and the IC50 (786-O) was 3.68 µM. For the same compound, the IC50 (Renca) was 6.03 µM, the IC50 (Hep G2) was 8.49 µM and the IC50 (H22) was 2.17 µM. The IC50 (HCC827) was 15.1 µM, the IC50 (LL/2(LLC1)) was 10.6 µM and the IC50 (A375) was 5.36 µM. For the same compound, the IC50 (B16-F10) was 16.9 µM, the IC50 (PANC-1) was 13.8 µM and the IC50 (Panc 02) was 9.86 µM. For the same compound, the IC50 (DU145) was 3.59 µM, the IC50 (RM-1) was 3.83 µM and the “TV (tumor volume)” value ([1]; 0 day (baseline)) was 75.96 mm^3. For the same compound, the “TGI (tumor growth inhibition)” value ([1]; 3 days) was −3.49%, the “TV (tumor volume)” value ([1]; 3 days) was 288.49 mm^3 and the “TGI (tumor growth inhibition)” value ([1]; 5 days) was 6.13%. For the same compound, the “TV (tumor volume)” value ([1]; 5 days) was 351.18 mm^3, the “TGI (tumor growth inhibition)” value ([1]; 7 days) was 22.78% and the “TV (tumor volume)” value ([1]; 7 days) was 597.48 mm^3. The “TGI (tumor growth inhibition)” value ([1]; 10 days) was 30.23%, the “TV (tumor volume)” value ([1]; 10 days) was 821.76 mm^3 and the “TGI (tumor growth inhibition)” value ([1]; 12 days) was 36.46%. For the same compound, the “TV (tumor volume)” value ([1]; 12 days) was 1081.49 mm^3, the “TGI (tumor growth inhibition)” value ([1]; 14 days) was 39.56% and the “TV (tumor volume)” value ([1]; 14 days) was 1627.00 mm^3.
